The source of these data is article PMC8398714, “Synthesis and Evaluation of Biological Activities of Bis(spiropyrazolone)cyclopropanes: A Potential Application against Leishmaniasis” (Molecules, 2021).

Each structure is given as a SMILES string.

Data set [1] in a line: Stability of solutions by spectroscopic measurements. It counts as physicochemical. The note with it: DMSO solution; 100 μM in DMSO, room temperature.
For data set [2], the system named is S. cerevisiae (W303 background). Briefly: Fungicidal activity (growth, OD600) on S. cerevisiae. Format: cell-based, Saccharomyces cerevisiae. The note with it: 24 h, OD600, concentrations 2.6 to 3000 µM, NA = no activity; for IC50: Saccharomyces cerevisiae, unit inferred, read-out: Inhibitory activity against S. cerevisiae W303 (IC50); for Inhibitory activity against S. cerevisiae W303 (IC50): unit not given. How it is done: Next, we determined the IC50 of bis(spiropyrazolone)cyclopropanes on a different eukaryotic model: the classical budding yeast S. cerevisiae. Cells were exposed to the compounds at concentrations ranging from 2.6 to 3000 µM for 24 h. The OD600 was measured to assess cell growth. […] These resistances could be explained by the presence of the fungal cell wall, which could limit the entry of bis(spiropyrazolone)cyclopropanes 4 into the cell. Other mechanisms cannot be ruled out, such as structural differences in molecular targets.
The antimicrobial activities of the synthesized compounds were tested against yeast S. cerevisiae (background W303), as described by Teran et al.. Concentrations ranging from 2468.7 to 2.4 µM were assayed.

For orientation: half-life means how long it takes for the measured level to halve. One may read the IC50 as the concentration needed to halve the response being measured. As to `CC1=NN(c2ccccc2)C(=O)[C@@]12C(c1ccccc1)[C@@]21C(=O)N(c2ccccc2)N=C1C` (relative stereo) [4b, (5R*,6R*)-4,10-Dimethyl-2,8,11-triphenyl-2,3,8,9-tetraazadispiro[4.0.4.1]undeca-3,9-diene-1,7-dione], the half-life at 100 µM in data set [1] was about 7.85 h. Also, the IC50 in data set [2] was found to be 1380 ± 304 µM. `COC(=O)c1ccc(C2[C@@]3(C(=O)N(c4ccccc4)N=C3C)[C@]23C(=O)N(c2ccccc2)N=C3C)cc1` (relative stereo) [4q, (5R*,6R*)-Methyl-4[4,10-dimethyl-2,8-diphenyl-2,3,8,9-tetraazadispiro[4.0.4.1]undeca-3,9-diene-1,7-dione-11-yl]benzoate]: in data set [2], the “Inhibitory activity against S. cerevisiae W303 (IC50)” value is on record as “slight measurable effect” and the IC50 was determined as 1090 ± 38.5 µM. In the case of `CC1=NN(c2ccccc2)C(=O)[C@@]12C(c1ccc(C(F)(F)F)cc1)[C@@]21C(=O)N(c2ccccc2)N=C1C` (relative stereo) [4r, (5R*,6R*)-11-(4-Trifluoromethylphenyl)-4,10-dimethyl-2,8-diphenyl-2,3,8,9-tetraazadispiro[4.0.4.1]undeca-3,9-diene-1,7-dione], the IC50 in data set [2] was 1270 ± 119 µM. For `CC1=NN(c2ccccc2)C(=O)[C@@]12C(c1ccc(OC(F)(F)F)cc1)[C@@]21C(=O)N(c2ccccc2)N=C1C` (relative stereo) [4s, (5R*,6R*)-11-(4-Trifluoromethoxyphenyl)-4,10-dimethyl-2,8-diphenyl-2,3,8,9-tetraazadispiro[4.0.4.1]undeca-3,9-diene-1,7-dione], in data set [2], the “Inhibitory activity against S. cerevisiae W303 (IC50)” value was “slight measurable effect” and the IC50 came to 789 ± 37.3 µM.
